Laboratory results taken from US6613770B1, “Quinoline derivatives as NK-2 and NK-3 receptor ligands” (SmithKline Beecham S.p.A., priority 1998, dated 2003).
Where a name gives a salt, the structure may show the parent alone.

| SMILES | melting point [°C] |
| --- | --- |
| O=C(NC1C2CC3CC(C2)CC1C3)c1c(CN2CCC(N3CCCCC3)CC2)c(-c2ccccc2)nc2ccccc12 (centres unmarked) [Example 10, 3-[1,4′]Bipiperidinyl-1′-ylmethyl-2-phenyl-quinoline-4-carboxylic acid adamantan-2-ylamide] | 219 to 220 |
| CC(C)CNC(=O)c1c(CN2CCN(C(C)C)CC2)c(-c2ccccc2)nc2ccccc12 [Example 2, 3-(4-Isopropyl-piperazin-1-ylmethyl)-2-phenyl-quinoline-4-carboxylic acid isobutyl-amide] | 215 to 217 |
| CCC(CC)NC(=O)c1c(CN2CCN(C(C)C)CC2)c(-c2ccccc2)nc2ccccc12 (as salt: HCl) [Example 4, 3-(4-Isopropyl-piperazin-1-ylmethyl)-2-phenyl-quinoline-4-carboxylic acid (1-ethyl-propyl)-amide] | 235 to 238 |
| C[C@H](NC(=O)c1c(CN2CCOCC2)c(-c2ccccc2)nc2ccccc12)C(C)(C)C [Example 7, 3-Morpholin-4-ylmethyl-2-phenyl-quinoline-4-carboxylic acid ((S)-1,2,2-trimethyl-propyl)-amide] | 207 to 209 |
| CC(C)NC(=O)c1c(CN2CCN(C(C)C)CC2)c(-c2ccccc2)nc2ccccc12 (as salt: HCl) [Example 3, 3-(4-Isopropyl-piperazin-1-ylmethyl)-2-phenyl-quinoline-4-carboxylic acid isopropylamide] | 198 to 200 |
| CC(C)N1CCN(Cc2c(-c3ccccc3)nc3ccccc3c2C(=O)NC2CCCCC2)CC1 [Example 11, 3-(4-Isopropyl-piperazin-1-ylmethyl)-2-phenyl-quinoline-4-carboxylic acid cyclohexylamide] | 161 to 163 |
| O=C(N[C@H]1CCc2ccccc21)c1c(CN2CCC(N3CCC(O)CC3)CC2)c(-c2ccccc2)nc2ccccc12 [Example 6, 3-(4-Hydroxy-[1,4′]bipiperidinyl-1′-ylmethyl)-2-phenyl-quinoline-4-carboxylic acid (S)-indan-1-ylamide] | 98 to 100 |
| O=C(N[C@H]1CCCc2ccccc21)c1c(CN2CCC(N3CCC(O)CC3)CC2)c(-c2ccccc2)nc2ccccc12 [Example 5, 3-(4-Hydroxy-[1,4′]bipiperidinyl-1′-ylmethyl)-2-phenyl-quinoline-4-carboxylic acid ((S)-1,2,3,4-tetrahydro-naphthalen-1-yl)-amide] | 144 to 146 |
